Measurements published in patent publication US5532223A, “Use of aqueous soluble glucan preparations to stimulate platelet production” (priority 1995, dated 1996).
Like-named read-outs stand apart in the source and are kept apart here.

Key:
Human Monocytes = assay: TNF-α synthesis by human monocyte monolayers stimulated with glucan preparations (ELISA); assay type: cell-based; details: for TNF-α / TNF-α Mean ± SD: glucan 1 mg/ml; for TNF-α Mean ± SD: Table 3; for TNF-α stimulation (in words): human monocytes, Tables 3 and 4
Description: Human peripheral blood mononuclear cells were isolated (Janusz et al., (1987), J. Immunol., 138: 3897-3901) from normal citrated and dextran-treated blood, washed in Hank's balanced salts solution (HBSS), lacking calcium, magnesium, and phenol red, and purified by gradient centrifugation on cushions of Ficoll-Paque (Pharmacia Fine Chemicals, Piscataway, N.J.). The mononuclear cells were collected into HBSS, washed twice, resuspended in RPMI 1640 Medium (Gibco, Grand Island, N.Y.) containing 1% heat-inactivated autologous serum (56° C. for 30 min.), and counted on the Coulter counter.
For the preparation of monocyte monolayers, 1 ml of 2.2×10^6 mononuclear cells/ml was plated into wells of 24-well tissue culture plates (CoStar, Cambridge, Mass.), incubated for 1 h at 37° C. in a humidified atmosphere of 5% CO2, and washed three times with RPMI to remove nonadherent cells. A second 1 ml aliquot of 2.2×10^6 mononuclear cells/ml was layered into each well and incubated for 2 hours as described above before removal of the nonadherent cells. By visual enumeration at 40× with an inverted phase microscope and a calibrated reticule, the number of adherent cells for 30 different donors was 0.77±0.20×10^6 per well (mean±SD). By morphology and nonspecific esterase staining, >95% of the adherent cells were monocytes.
Monocyte monolayers were incubated at 37° C. in the CO2 chamber for 0 to 8 h with 0.5 ml of RPMI, 1% heat-inactivated autologous serum, 10 mM HEPES, and 5 mM MgCl2 in the absence and presence of various glucan preparations. The culture supernatant was removed, clarified by centrifugation at 14,000 g for 5 min at 4° C., and stored at -70° C. before assay of cytokines.
The data are expressed as pg per 10^6 monocytes, which was calculated by dividing the quantity of cytokine in 0.5 ml of supernatant by the number of monocytes per well.

[1] = tested on: β-glucan receptor on human monocytes; assay: Avidity for the glucan receptor: inhibition of monocyte ingestion of zymosan particles; assay type: cell-based; details: for % Inhibition of monocyte ingestion: mean of two experiments
Description: Monolayers of human monocytes, prepared on siliconized glass coverslips (Czop et al., 1978, J. […] The monocyte monolayers were then washed twice with 50 ml of RPMI 1640 medium and were layered with 0.25 ml of 4.8×10^6 /ml zymosan particles (Czop and Austen, 1985, J. Immunol., 134:2588-2593). After a 30 minute incubation at 37° C., the monolayers were washed three times with 50 ml of Hank's balanced salt solution to remove noningested zymosan particles. The monolayer were then fixed and stained with Giemsa. The ingestion of zymosan particles by at least 300 monocytes per monolayer was determined by visual observation under a 1000× light microscope.
The percent inhibition of monocyte ingestion was determined by subtracting the percentage of monocytes ingesting targets after pretreatment with the neutral soluble glucan from the percentage ingesting targets after pretreatment with buffer, dividing this number by the percentage ingesting targets after pretreatment with buffer and multiplying by 100.

[2] = tested on: Human Peripheral Blood Mononuclear Cells (IL-1β); assay: In vitro IL-1β synthesis by human peripheral blood mononuclear cells (radioimmunoassay), stimulation and priming; assay type: cell-based; details: for IL-1β: 24 hours, mean of two donors
Description: (§1) Venous blood was obtained from healthy male volunteers and mononuclear cells were fractionated by Ficoll-Hypaque centrifugation. The mononuclear cells were washed, resuspended in endotoxin-free RPMI-1640 culture medium ultrafiltered to remove endotoxins as described elsewhere (Dinarello et al., 1987, J. Clin. Microbiol. 25:1233-8) at a concentration of 5×10^6 cells/ml and were aliquoted into 96-well microtiter plates (Endres et al., 1989, N. E. J. Med. 320:265-271). The cells were then incubated with either 1 ng/ml endotoxin (lipopoly-saccharide, E. coli 055:B5, Sigma, St. Louis), or 10 to 1000 ng/ml PGG, at 37° C. for 24 hours in 5% CO2 and then lysed by three freeze-thaw cycles (Endres et al., 1989, N. E. J. Med. 320:265-271). Synthesis of IL-1β and TNFα were determined by specific radioimmunoassays as described elsewhere (Lisi et al., 1987, Lymph Res. 6:229-244; Lonnemann et al., 1988, Lymph. Res. 7:75-84; Van der Meer et al., 1988, J. Leukocycte Biol. 43:216-223.
(§2) To determine if neutral soluble glucan could act as a priming agent for cytokine synthesis with endotoxin, a known cytokine stimulant, mononuclear cells were pre-incubated with 1, 10, and 1000 ng/ml underivatized, aqueous soluble β-glucan for 3 hours at 37° C. in 5% CO2. The cells were washed to remove neutral soluble glucan and were then incubated with 1 ng/ml endotoxin as described above. IL-1β and TNFα were determined as described above.

[3] = tested on: Human Peripheral Blood Mononuclear Cells (TNFα); assay: In vitro TNFα synthesis by human peripheral blood mononuclear cells (radioimmunoassay), stimulation and priming; assay type: cell-based; details: for TNFα: 24 hours, mean of two donors
Description: as §1, §2

[4] = tested on: polymicrobic infectious challenge (cecal inoculum); assay: Rat model for intra-abdominal sepsis; assay type: in vivo; details: rats
[5] = human, in vivo, iv
Description: (§3) A randomized, double-blind, placebo-controlled clinical trial was conducted on healthy males to evaluate the safety of neutral soluble glucan (2.25 mg/kg) injected by intravenous infusion compared to a placebo control. […] The results are consistent with the in vitro data reported in the earlier examples.

[6] = tested on: IL-1, TNF, IL-6, IL-8 and GM-CSF; assay: Clinical trial in healthy males: serum cytokines; assay type: in vivo, human
Description: as §3

neutrophils = assay: Clinical trial in healthy males: absolute neutrophil counts; assay type: in vivo, human; details: 2.5 mg/kg, N 6
monocytes = assay: Clinical trial in healthy males: monocyte counts; assay type: in vivo, human; details: 2.5 mg/kg, N 6
[7] = tested on: monocytes and neutrophils (killing activity); assay: Ex vivo microbicidal activity of normal volunteers; assay type: in vivo, human; details: 2.5 mg/kg, normalized with respect to the saline control, N 6
full thickness wounds = assay: Wound healing, full thickness wound in hairless mice; assay type: in vivo, mouse
Description: Wound healing studies were performed on hairless mouse models having full thickness wounds with and without Staphylococcus aureus infection.
Incisions were closed using steel clips at 1 cm intervals.
[…] Two micrograms of neutral soluble glucan/mouse per day was topically applied. Wounds were examined daily and rank-ordered for effectiveness of formulation for enhancement of visual based wound healing each day. Wounds were scored for closure on a scale of 0-5, with 5 indicating the most healing. In one group of mice that served as the infection model, the wound was treated with a culture of 10^7 Staphylococcus aureus 30 minutes after wounding and 2 hrs prior to treatment with the neutral soluble glucan formulation.
Histological evaluation of the wound site of each test group was made. The dermis of the control group (untreated wound) was heavily infiltrated with both lymphocytes and monocytes/macrophages. However, re-epithelialization that occurred at the epidermal layer was incomplete.

Staphylococcus aureus = assay: Wound healing, full thickness wound infected with Staphylococcus aureus in hairless mice; assay type: in vivo, mouse; details: wound treated with 10^7 Staphylococcus aureus; topical
Description: Wound healing studies were performed on hairless mouse models having full thickness wounds with and without Staphylococcus aureus infection. […] Incisions were closed using steel clips at 1 cm intervals. Formulations of neutral soluble glucan in phosphate buffered saline were applied 30 minutes following wounding and reapplied at 24 hour intervals during the seven day post-operative period. Two micrograms of neutral soluble glucan/mouse per day was topically applied. Wounds were examined daily and rank-ordered for effectiveness of formulation for enhancement of visual based wound healing each day. Wounds were scored for closure on a scale of 0-5, with 5 indicating the most healing. In one group of mice that served as the infection model, the wound was treated with a culture of 10^7 Staphylococcus aureus 30 minutes after wounding and 2 hrs prior to treatment with the neutral soluble glucan formulation.

platelets = assay: Platelet count in irradiated mice; assay type: in vivo, mouse; details: single IV bolus 20 hours prior to 7.5-Gy total-body irradiation, fourteen days after irradiation, FIG. 7
Description: The platelet proliferation stimulatory effect of the neutral soluble glucan was tested in an animal model system following irradiation or administration of the chemotherapeutic agent cisplatin.
More specifically, neutral soluble glucan prepared as described in Example 1 was administered to groups of 10 mice in a single IV bolus 20 hours prior to radiation exposure. Mice were bilaterally exposed to a total-body irradiation of 7.5-Gy. Fourteen days after irradiation the mice were sacrificed and whole blood samples were analyzed for peripheral blood counts.

[8] = water
[9] = pre-incubation 10-1000 ng/ml, then endotoxin as co-stimulant
[10] = mice treated topically for three days, in phosphate buffered saline

Substance: Laminarin [reference compound]
- TNF-α (Human Monocytes; Table 3, column 1): 372 pg/10^6 monocytes
- TNF-α (Human Monocytes; Table 3, column 2): 324 pg/10^6 monocytes
- TNF-α (Human Monocytes; Table 3, column 3): 227 pg/10^6 monocytes
- TNF-α Mean ± SD (Human Monocytes): 308 ± 74 pg/10^6 monocytes
- TNF-α (Human Monocytes; Table 4): 1312 pg/10^6 monocytes
- TNF-α stimulation (in words) (Human Monocytes): stimulated

Substance: poly-(1-6)-β-D-glucopyranosyl-(1-3)-β-D-glucopyranose [Neutral soluble glucan]
- TNF-α (Human Monocytes; Table 3, column 1): 44 pg/10^6 monocytes
- TNF-α (Human Monocytes; Table 3, column 2): 51 pg/10^6 monocytes
- TNF-α (Human Monocytes; Table 3, column 3): 33 pg/10^6 monocytes
- TNF-α Mean ± SD (Human Monocytes): 43 ± 9 pg/10^6 monocytes
- TNF-α (Human Monocytes; Table 4): 16 pg/10^6 monocytes
- TNF-α stimulation (in words) (Human Monocytes): no stimulation of TNF-α
- receptor binding capacity (in words) ([1]; 50 μg/ml and 500 μg/ml): higher receptor binding capacity than Peak B
- % Inhibition of monocyte ingestion ([1]; 50 μg/ml): 74%
- % Inhibition of monocyte ingestion ([1]; 500 μg/ml): 86%
- priming of IL-1β synthesis compared to endotoxin alone (in words) [2, 9]: did not result in any amplification
- IL-1β ([2]; stimulant 10 ng/ml): 0.13 ng/mL
- IL-1β ([2]; stimulant 100 ng/ml): 0.12 ng/mL
- IL-1β ([2]; stimulant 1000 ng/ml): < 0.10 ng/mL
- IL-1β synthesis over control buffer treated cells (in words) ([2]; used alone as stimulant): did not induce increased levels
- priming of TNFα synthesis compared to endotoxin alone (in words) [3, 9]: did not result in any amplification
- TNFα ([3]; stimulant 10 ng/ml): 0.16 ng/mL
- TNFα ([3]; stimulant 100 ng/ml): 0.16 ng/mL
- TNFα ([3]; stimulant 1000 ng/ml): 0.14 ng/mL
- TNFα synthesis over control buffer treated cells (in words) ([3]; used alone as stimulant): did not induce increased levels
- protection from lethal bacterial challenge (in words) [4]: protects rats from lethal bacterial challenge
- Mortality (dead/total) ([4]; 100 μg/0.2 ml intramuscularly 24 hours and 4 hours prior to challenge, P vs. Saline <0.01): 2/10
- fever or inflammatory reactions [5]: none of the patients experienced fever or inflammatory reactions
- adverse effects ([5]; 2.25 mg/kg): No adverse effects were observed
- elevation in IL-1, TNF, IL-6, IL-8 and GM-CSF ([6]; 2.25 mg/kg intravenous infusion): no observed elevation
- changes in serum IL-1 and TNF ([6]; over time, FIGS. 5 and 6): no changes occurred
- Absolute Neutrophil Counts, Mean (neutrophils; B = Baseline measurement): 4.11 × 1000/μl
- Absolute Neutrophil Counts, Mean (neutrophils; Hour 8): 11.29 × 1000/μl
- Absolute Neutrophil Counts, Mean (neutrophils; Hour 12): 8.18 × 1000/μl
- Absolute Neutrophil Counts, Mean (neutrophils; Hour 24): 5.32 × 1000/μl
- Monocyte Counts, Mean (monocytes; B = Baseline measurement): 0.24 × 1000/μl
- Monocyte Counts, Mean (monocytes; Hour 8): 0.63 × 1000/μl
- Monocyte Counts, Mean (monocytes; Hour 12): 0.67 × 1000/μl
- Monocyte Counts, Mean (monocytes; Hour 24): 0.31 × 1000/μl
- Mean Change in % Killing ([7]; Day 2): 48.96%
- Mean Change in % Killing ([7]; Day 3): 39.22%
- Mean Change in % Killing ([7]; Day 6): 31.17%
- Mean Change in % Killing ([7]; Hour 3): 42.86%
- Mean Change in % Killing ([7]; Hour 6): 32.33%
- Mean Change in % Killing ([7]; Hour 24): 20.90%
- histology of wounded tissue: cell infiltration (full thickness wounds; [10]): heavy infiltration of macrophages and lymphocytes
- histology of wounded tissue: tissue integrity (full thickness wounds; [10]): Tissue integrity was good
- wound healing (in words) (full thickness wounds; topically applied, two micrograms/mouse per day): accelerated wound healing within the dermal layer of the wound
- infection of the wound (in words) (Staphylococcus aureus): effectively eliminated infection
- progression to sepsis (in words) (Staphylococcus aureus): prevented the progression to sepsis
- platelet cell count relative to saline treated control levels (platelets): ~3 fold
- aqueous solubility [8]: approximately 100 mg/ml
- aqueous solubility ([8]; pH 13): ~150 mg/mL
